# Assay results as given in patent US5688773A, “Method of selectively destroying neoplastic cells” (priority 1994, dated 1997).
# Key:
# [1] = system: cytochrome P450 2B1-negative cells (parental 9L and 9L-Z); assay: Drug sensitivity of cultured 9L cells; assay type: cell-based, rat; conditions: 5 days
# Experimental: (§1) To test for drug sensitivity, 1×10^5 cells were plated in 30-mm tissue culture plates (Falcon 3046) in duplicate. Drugs were added 18-24 hours after seeding. Cells were allowed to grow for times ranging up to 5 days after drug treatment, and the final cell number was then determined. Cells were rinsed with phosphate buffered saline or Hank's buffered saline, dispersed using trypsin-EDTA (GIBCO/BRL, Inc.), and then counted with a hemocytometer. Results are expressed as a growth ratio, i.e., the number of cells in plates containing drug as a percentage of the corresponding drug-free controls (mean±range of duplicate determinations).
# [2] = system: cytochrome P450 2B1-positive cells (9L-ZP and L450-2); conditions: 5 days
# C6 cells [3] = assay: Cell proliferation assay; assay type: cell-based, rat; conditions: 0.5 mM, four days
# Experimental: Cell proliferation assays: For cell proliferation assays, cells (2×10^5 per dish, unless otherwise noted) were plated onto 10 cm dishes. […] Incubations were continued for four days and cell numbers were assayed using a Coulter counter (Coulter Electronics Inc.), after harvesting in trypsinEDTA.
# C6 cells [4] = assay: Trypsinization and replating assay; assay type: cell-based, rat; conditions: Table V panel B; survivors of panel A replated, nine days
# Experimental: Trypsinization and replating assay: To determine the temporal kinetics of CPA-mediated cytotoxicity, 2×10^6 cells were plated onto each 10 cm dish. Twenty-four hours later, 0.5 mM CPA was added and cells were incubated for the times indicated in each figure. Cells were then trypsinized and replated at a density of 2×10^5 cells/10 cm dish. Nine days later, cell numbers were evaluated by Coulter counting.
# [5] = system: C6 cells exposed to CM from C6; assay: C6 colony formation after conditioned medium from drug-exposed cells; assay type: cell-based, rat; conditions: Table V panel C; CM from treated C6 cultures
# [6] = system: mixed culture of 9L and 9L-ZP cells; assay: Cytotoxicity toward mixed cultures; assay type: cell-based, rat; conditions: 10 μM metyrapone
# Experimental: FIG. 28 is a bar graph depicting the cytotoxicity of oxazaphosphorines toward mixed cultures of 9L and 9L-ZP cells. Equal numbers of parental 9L cells were mixed with 9L-ZP cells (total initial cell number=1×10^5 /30 mm tissue culture dish). […] Cell numbers were determined 5 days after beginning drug treatment. Data (mean ±range of duplicates) are expressed as growth ratio (%) relative to drug-free controls.
# as §1
# [7] = system: parental 9L cells co-cultured with 9L-ZP cells; assay: Co-culture experiments with culture inserts; assay type: cell-based, rat; conditions: 10 μM metyrapone
# Experimental: Co-culture Experiments: Parental 9L cells were plated in the bottom wells of culture plates (Falcon 3502), and cytochrome P450 2B1-negative or cytochrome P450 2B1-positive cells were plated into 25 mm cell culture inserts (0.45 μm pore size, Falcon 3090). Culture media were removed 18-24 hours later by aspiration. Culture medium without drug (1.0 mL) was added to the bottom well, and 1.0 mL medium containing drug was added to the upper cell culture insert. Cell numbers were determined 5 days later, as described above.
# 9L-ZP cells = assay: Drug sensitivity of cultured 9L cells with or without metyrapone; conditions: 10 μM metyrapone
compound,measurement,setting,value
O=P1(N(CCCl)CCCl)NC(OO)CCO1 (centres unmarked) [4-hydroperoxy cyclophosphamide],Sensitivity to activated cyclophosphamide,[1],inherently sensitive
same,Sensitivity to activated cyclophosphamide,[2],inherently sensitive
"CCN(CC)P1(=O)NCCCO1 (centres unmarked) [DCPA, didechlorocyclophosphamide]",Effect on cell proliferation,C6 cells [3],had no effect
same,"Cell proliferation assay, number of cells",C6 cells [3]; Table V panel A,21.51±0.43 ×10^6
same,"Trypsinization and replating assay, cell count",C6 cells [4],20.58±0.33
same,"Secretion effect, C6 colony number",[5],301±4.6
CC(C)(C(=O)c1cccnc1)c1cccnc1 [metyrapone],Effect on cyclophosphamide killing of mixed culture,[6],largely abrogate
same,Effect on cyclophosphamide killing of both cell populations,[7],effectively blocked
same,Effect on cytotoxic effect of 4-hydroperoxy cyclophosphamide,9L-ZP cells; 10 μM 4-hydroperoxy cyclophosphamide,did not block
same,Effect on cytotoxic effects of cyclophosphamide,9L-ZP cells; 1 mM cyclophosphamide,nearly eliminated
same,Effect on cytotoxic effects of ifosphamide,9L-ZP cells; 2 mM ifosphamide,nearly eliminated
